Test system: adult rat lung
Assay: adult rat lung model (pressure-volume curve, lung compliance)
Type: in vivo
Settings: pressure-volume curves (Figs. 1 and 2), three ml of the preparations of Examples 1 and 2 tested
Method: The synthetic surfactant preparations were tested in the adult rat lung model (Ikegami, et al., (1979) Pediatr. Res. 13, 777-780). Reference I and Reference II, consisting of DPPC, alone and dog lung surfactant, respectively, were employed as reference standards. Three ml of the preparations from each of examples 1 and 2 were tested in an adult rat lung model. […] Results are illustrated in Figures 1 and 2.

CCCCCCCCCCCCCCCC(=O)OC[C@H](COP(=O)([O-])OCC[N+](C)(C)C)OC(=O)CCCCCCCCCCCCCCC [Reference I, dipalmitoylphosphatidylcholine]
compliance of the rat lung: no effect

From patent EP0348967A2, “Synthetic lung surfactant preparation comprising lipids and polypeptides” (MERRELL PHARMACEUTICALS INC., priority 1988, dated 1990)
